Earlier results in patent US11123368B2, “Immunosuppressive blood cells and methods of producing the same” (Universitatsklinikum Heidelberg, priority 2008, dated 2021).

Test system: multiple sclerosis
Conditions: clinical trials

## glatiramer acetate
  relapse rate of MS: significantly reduced
MS
  progression of disability: slowed progression of disability
